Source: patent US8232274B2, “Pyridazinone derivatives useful as glucan synthase inhibitors” (Albany Molecular Research, Inc., priority 2007, dated 2012)

Assays:
glucan synthase [1] = molecular target: T1, glucan synthase (Saccharomyces cerevisiae, UniProt P38631); experiment: β(1,3) glucan synthase assay, S. cerevisiae PM503 permeabilized cells or membrane preparation (IC50); format: biochemical
T1 construct: glucan synthase sources (2 μL permeabilized PM503 cells, or 3 μL membrane preparations from either PM503, BWP17, or ND158); endogenous in cells; host or cells: S. cerevisiae strain PM503, permeabilized cells or 100,000 g membrane fraction
Protocol: (§1) β(1,3) Glucan Synthase Assay:
1. Preparation of Permeabilized Saccharomyces cerevisiae Cells.
Permeabilization of yeast cells was performed according to Crotti et al. (Analytical Biochemistry, 292, 8-16, 2001) with some modifications. A 10 ml-starter culture of the S. cerevisiae strain in YPD medium (1% yeast extract, 2% bacto-peptone, 2% dextrose) with OD600=3-4 was used to inoculate 1 liter of YPD. The culture was grown at 30° C. until […]. Cells were collected by centrifugation (5,300 g for 15 min at 4° C.) and resuspended in buffer (40 mM EDTA, 100 mM β-mercaptoethanol) at 1 g of cell pellet/3.5 ml buffer. The cell suspension was shaken for 30 min at 30° C., followed by centrifugation at 12,000 g for 10 min at 4° C. The cell pellet was washed with 5 ml 0.8 M sorbitol and resuspended in 6.8 ml of 2.9 mM citric acid, 11.3 mM dibasic sodium phosphate, 1 mM EDTA, 0.8 M sorbitol, with constant shaking at 30)C for 30 min. After centrifugation at 12,000 g for […] at 4° C., the pellet was resuspended in 31.3 ml 50 mM Tris-HCl, pH 7.0, and incubated on ice for 5 min. The mixture was then centrifuged at 12,000 g for 10 min at 4 AC, and the pellet was resuspended in 1 ml of 50 mM Tris-HCl and 33% glycerol, pH 7.5. The permeabilized cell preparation was stored at […] in aliquots.
(§2) 2. Preparation of Membrane Fraction of Yeast Cells
(§3) The protocol was modified from Douglas et al. (Journal of Bacteriology, 176, 5686-5696, 1994). For the preparation of S. cerevisiae and C. albicans membrane fractions, 1 liter of YPD supplemented with 0.02 mg/mL adenine and 0.08 mg/mL uracil was inoculated with 10 mL starter culture of PM503 (OD600=4) or the C. albicans strain BWP17 (OD600=12) in the same medium and grown at 30° C. until OD600 reached about 1. A. fumigatus (stain ND158) membranes were prepared by first preparing a spore suspension from agar slants by adding 6 mL of sterile saline, 0.1% Tween-20 solution to each slant, and resuspending by pipetting and scraping. The spore suspensions were used to inoculate two 200 mL flasks containing Sabouraud dextrose broth media. Cultures were incubated at 37° C., 250 rpm for ˜8 hrs. All cells, S. cerevisiae, C. albicans or A. fumigatus were harvested by centrifugation at 5,300 g at 4° C. for 40 minutes. After washing with 100 mL of breakage buffer (0.1 M KPi, pH 7.0, 1 mM EDTA, 1 mM DTT), the cell pellet was resuspended in 50 ml ice-cold breakage buffer. The mixture was transferred to a bead-beater chamber packed in ice (BioSpec Products, Bartlesville, Okla.). To each 50 mL sample was added 50 g of acid-washed glass beads ([…], Sigma). Cells were disrupted using 12×20 second pulses with 2 min-cooling intervals. Cell debris was removed by centrifugation at 3,000 g for 20 minutes at 4° C., and the supernatant was collected and centrifuged at 100,000 g for 1 hour at 4° C. to pellet the membrane fraction. The pellet was resuspended in 5 mL of ice-cold breakage buffer containing 25% glycerol, homogenized with a Dounce tissue homogenizer and stored at −80° C. in small aliquots.
(§4) 3. Glucan Synthase Assay and Compound Screening
The assay was performed according to Mo et at (Journal of Biological Chemistry, 269, 31267-31274, 1994) and Taft et al. (The Journal of Antibiotics, 47, 1001-1009, 1994), in a 96-well Optiplate (PerkinElmer). To each well was added 3 μL 10× compound stock (in 100% DMSO), or 3 μL of 30 μg/mL caspofungin in 100% DMSO (as positive control), or 3 μL 100% DMSO (as negative control), followed by the addition of appropriate amount of glucan synthase sources (2 μL permeabilized PM503 cells, or 3 μL membrane preparations from either PM503, BWP17, or ND158). The reaction was initiated by adding 25 μL reaction buffer (0.6 mM UDP-Glucose 0.6 nCi [U-^14C]DUP-Glucose (327 mCi/mmol, Amersham Bioscience), 20 μM GTP-γ-S, 25 mM NaF, 7.5 mg/mL BSA, 8% glycerol in 75 mM Tris-HCl, pH 7.5). […]

glucan synthase [2] = molecular target: T2, glucan synthase (Candida albicans, UniProt O13428); experiment: β(1,3) glucan synthase assay, C. albicans BWP17 membrane preparation (IC50); format: biochemical; settings: in vitro fungal enzyme activity assay, read-out: IC50 (μg/mL) Candida albicans (converted)
T2 construct: glucan synthase sources (2 μL permeabilized PM503 cells, or 3 μL membrane preparations from either PM503, BWP17, or ND158); endogenous in cells; host or cells: C. albicans strain BWP17, 100,000 g membrane fraction
Protocol: as §1, §2, §3, §4
The assay was performed according to Mo et at (Journal of Biological Chemistry, 269, 31267-31274, 1994) and Taft et al. (The Journal of Antibiotics, 47, 1001-1009, 1994), in a 96-well Optiplate (PerkinElmer). To each well was added 3 μL 10× compound stock (in 100% DMSO), or 3 μL of 30 μg/mL caspofungin in 100% DMSO (as positive control), or 3 μL 100% DMSO (as negative control), followed by the addition of appropriate amount of glucan synthase sources (2 μL permeabilized PM503 cells, or 3 μL membrane preparations from either PM503, BWP17, or ND158). The reaction was initiated by adding 25 μL reaction buffer (0.6 mM UDP-Glucose 0.6 nCi [U-^14C]DUP-Glucose (327 mCi/mmol, Amersham Bioscience), 20 μM GTP-γ-S, 25 mM NaF, 7.5 mg/mL BSA, 8% glycerol in 75 mM Tris-HCl, pH 7.5). The plate was incubated on a shaker for 1.5 hour at room temperature before being quenched with 250 μL 1% TCA (Trichloroacetic Acid). The quenched reaction was mixed by pipetting, and immediately transferred to a 96-well filter plate (Glass fiber B on 0.65 μm hydrophilic durapore membrane, Millipore) pre-wetted with wash buffer (5% TCA, 60 mM NaPPi). The glucan product was retained on the filter membrane by applying vacuum to the plate using a MultiScreen Resist Vacuum Manifold (Millipore). The filter plate was further washed 4 times with 200 μL wash buffer. The plate was dried at 50° C. for 30 minutes. 100 μL of Microscint-0 (PerkinElmer) was added to each well, and plate was counted in a TopCount NXT plate reader (PerkinElmer).
Dose-response curves were plotted from inhibition data generated. IC50 was determined by fitting the CPM versus the Concentration of the test compound plot with the following equation (4-parameter logistic model, ID Business Solutions XLfit 4.2).

T1 sequence (P06780 1-206): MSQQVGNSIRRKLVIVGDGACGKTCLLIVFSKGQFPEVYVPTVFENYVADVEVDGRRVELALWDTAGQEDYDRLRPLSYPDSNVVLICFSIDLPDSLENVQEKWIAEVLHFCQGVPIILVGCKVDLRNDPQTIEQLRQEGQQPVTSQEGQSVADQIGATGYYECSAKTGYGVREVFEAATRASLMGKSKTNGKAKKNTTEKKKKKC
T1 sequence (P38631 whole entry): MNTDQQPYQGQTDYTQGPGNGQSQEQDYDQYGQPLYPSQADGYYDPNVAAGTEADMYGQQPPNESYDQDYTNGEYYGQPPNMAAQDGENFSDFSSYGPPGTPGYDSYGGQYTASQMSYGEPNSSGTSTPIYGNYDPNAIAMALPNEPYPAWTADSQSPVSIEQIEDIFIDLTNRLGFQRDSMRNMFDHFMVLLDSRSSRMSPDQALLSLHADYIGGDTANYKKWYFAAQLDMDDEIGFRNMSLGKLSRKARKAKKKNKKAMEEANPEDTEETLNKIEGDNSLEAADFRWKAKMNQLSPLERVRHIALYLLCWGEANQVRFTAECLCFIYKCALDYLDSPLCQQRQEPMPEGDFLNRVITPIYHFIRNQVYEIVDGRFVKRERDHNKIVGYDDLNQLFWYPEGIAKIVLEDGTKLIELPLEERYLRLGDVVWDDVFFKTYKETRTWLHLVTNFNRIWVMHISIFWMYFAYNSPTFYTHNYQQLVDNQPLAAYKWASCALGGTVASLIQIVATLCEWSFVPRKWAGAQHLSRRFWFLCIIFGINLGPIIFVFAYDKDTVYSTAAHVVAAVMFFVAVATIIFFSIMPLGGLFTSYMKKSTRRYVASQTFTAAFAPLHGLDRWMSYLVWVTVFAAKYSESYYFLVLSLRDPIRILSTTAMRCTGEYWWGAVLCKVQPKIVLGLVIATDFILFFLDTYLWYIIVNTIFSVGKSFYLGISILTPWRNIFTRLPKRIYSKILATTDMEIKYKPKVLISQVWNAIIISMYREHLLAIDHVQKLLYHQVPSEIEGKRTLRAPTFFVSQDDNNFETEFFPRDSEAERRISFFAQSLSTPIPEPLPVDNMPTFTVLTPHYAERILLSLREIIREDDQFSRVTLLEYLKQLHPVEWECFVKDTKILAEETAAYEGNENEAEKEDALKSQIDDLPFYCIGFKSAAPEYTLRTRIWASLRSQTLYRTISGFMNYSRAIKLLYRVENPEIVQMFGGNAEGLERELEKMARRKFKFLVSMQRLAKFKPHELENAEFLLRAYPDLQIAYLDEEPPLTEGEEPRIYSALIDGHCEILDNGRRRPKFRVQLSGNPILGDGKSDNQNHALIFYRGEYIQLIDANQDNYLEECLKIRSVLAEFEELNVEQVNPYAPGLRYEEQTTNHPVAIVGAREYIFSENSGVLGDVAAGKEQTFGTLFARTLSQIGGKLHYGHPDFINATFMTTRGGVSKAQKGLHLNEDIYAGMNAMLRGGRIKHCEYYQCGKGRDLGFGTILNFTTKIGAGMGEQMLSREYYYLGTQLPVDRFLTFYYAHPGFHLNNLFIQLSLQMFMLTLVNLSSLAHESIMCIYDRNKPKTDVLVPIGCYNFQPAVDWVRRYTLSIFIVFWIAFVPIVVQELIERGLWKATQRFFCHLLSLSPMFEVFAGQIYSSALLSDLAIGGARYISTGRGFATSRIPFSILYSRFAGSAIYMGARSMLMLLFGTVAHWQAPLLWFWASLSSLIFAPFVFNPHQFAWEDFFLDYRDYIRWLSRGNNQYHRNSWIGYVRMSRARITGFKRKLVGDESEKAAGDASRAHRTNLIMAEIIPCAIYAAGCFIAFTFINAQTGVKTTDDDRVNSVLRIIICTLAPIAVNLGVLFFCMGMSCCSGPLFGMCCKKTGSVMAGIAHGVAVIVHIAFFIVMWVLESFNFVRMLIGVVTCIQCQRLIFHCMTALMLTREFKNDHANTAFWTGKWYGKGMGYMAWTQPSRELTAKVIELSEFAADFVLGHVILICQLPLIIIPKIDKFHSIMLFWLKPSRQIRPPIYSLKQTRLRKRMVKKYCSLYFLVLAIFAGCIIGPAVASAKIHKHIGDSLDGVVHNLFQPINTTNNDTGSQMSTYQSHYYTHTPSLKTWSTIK
T2 sequence (O13428 1-1897): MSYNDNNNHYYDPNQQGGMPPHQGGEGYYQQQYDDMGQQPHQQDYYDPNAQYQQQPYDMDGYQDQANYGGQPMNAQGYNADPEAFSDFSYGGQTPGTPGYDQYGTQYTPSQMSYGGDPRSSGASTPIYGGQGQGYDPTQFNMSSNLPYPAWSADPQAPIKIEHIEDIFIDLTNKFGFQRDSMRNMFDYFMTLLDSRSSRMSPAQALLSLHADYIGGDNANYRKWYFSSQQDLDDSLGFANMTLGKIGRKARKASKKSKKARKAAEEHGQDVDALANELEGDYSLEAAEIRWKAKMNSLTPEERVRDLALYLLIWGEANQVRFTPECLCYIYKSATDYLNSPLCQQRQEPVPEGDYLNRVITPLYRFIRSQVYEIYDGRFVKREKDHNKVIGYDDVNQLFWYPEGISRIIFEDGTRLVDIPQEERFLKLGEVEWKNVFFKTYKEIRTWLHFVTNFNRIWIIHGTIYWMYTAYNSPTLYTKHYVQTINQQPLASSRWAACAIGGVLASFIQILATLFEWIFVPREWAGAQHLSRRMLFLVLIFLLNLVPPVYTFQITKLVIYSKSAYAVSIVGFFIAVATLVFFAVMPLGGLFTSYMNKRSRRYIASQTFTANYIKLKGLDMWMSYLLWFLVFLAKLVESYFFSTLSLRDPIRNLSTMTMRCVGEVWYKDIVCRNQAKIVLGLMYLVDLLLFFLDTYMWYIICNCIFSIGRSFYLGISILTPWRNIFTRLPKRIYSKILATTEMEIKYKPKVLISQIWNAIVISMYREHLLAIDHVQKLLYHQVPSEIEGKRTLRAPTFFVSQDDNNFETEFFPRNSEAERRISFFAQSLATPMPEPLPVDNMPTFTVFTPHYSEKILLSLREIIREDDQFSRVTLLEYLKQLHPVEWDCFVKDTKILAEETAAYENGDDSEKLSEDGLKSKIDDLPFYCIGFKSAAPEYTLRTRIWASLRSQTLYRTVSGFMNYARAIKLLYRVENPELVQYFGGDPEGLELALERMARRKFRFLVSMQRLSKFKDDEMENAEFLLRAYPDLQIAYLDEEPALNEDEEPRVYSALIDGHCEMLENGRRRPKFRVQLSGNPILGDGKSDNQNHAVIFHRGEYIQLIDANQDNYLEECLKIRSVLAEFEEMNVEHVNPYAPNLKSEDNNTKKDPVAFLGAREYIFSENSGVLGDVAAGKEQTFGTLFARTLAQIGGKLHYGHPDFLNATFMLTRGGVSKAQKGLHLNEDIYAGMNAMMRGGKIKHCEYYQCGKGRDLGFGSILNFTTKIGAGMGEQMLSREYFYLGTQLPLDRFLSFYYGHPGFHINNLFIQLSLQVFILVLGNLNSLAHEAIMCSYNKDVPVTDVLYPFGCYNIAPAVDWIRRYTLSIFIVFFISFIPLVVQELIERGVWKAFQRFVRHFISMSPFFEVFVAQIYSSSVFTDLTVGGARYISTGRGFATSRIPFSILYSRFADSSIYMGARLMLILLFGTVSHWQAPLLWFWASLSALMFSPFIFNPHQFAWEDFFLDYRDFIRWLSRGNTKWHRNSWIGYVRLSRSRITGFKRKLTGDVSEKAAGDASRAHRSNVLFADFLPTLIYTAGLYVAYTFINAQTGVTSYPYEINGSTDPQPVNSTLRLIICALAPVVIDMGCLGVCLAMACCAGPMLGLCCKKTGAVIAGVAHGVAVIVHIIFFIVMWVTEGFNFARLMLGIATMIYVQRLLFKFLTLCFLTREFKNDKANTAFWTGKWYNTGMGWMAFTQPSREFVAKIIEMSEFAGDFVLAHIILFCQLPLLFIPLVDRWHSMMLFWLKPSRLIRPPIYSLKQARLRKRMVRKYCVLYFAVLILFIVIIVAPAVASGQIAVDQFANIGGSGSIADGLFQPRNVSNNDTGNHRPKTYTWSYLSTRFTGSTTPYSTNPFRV
T2 sequence (O42825 1-195 partner limits assumed): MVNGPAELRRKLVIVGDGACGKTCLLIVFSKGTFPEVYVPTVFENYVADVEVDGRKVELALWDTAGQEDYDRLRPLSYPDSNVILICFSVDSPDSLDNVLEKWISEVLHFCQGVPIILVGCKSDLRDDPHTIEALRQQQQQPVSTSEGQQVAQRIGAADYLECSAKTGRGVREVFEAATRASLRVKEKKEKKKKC

Row | Compound | IC50 (glucan synthase [1]) | IC50 (glucan synthase [2])
1 | CC1(COc2c(N3CCN(S(=O)(=O)Cc4cccnc4N)CC3)cnn(-c3cccc(Cl)c3)c2=O)CC1 [Compound 1574Zr] | 110 nM | 239 nM
2 | COc1ccc(CNS(=O)(=O)N2CCN(c3cnn(-c4cc(F)cc(F)c4)c(=O)c3OCC3(C)CC3)CC2)cc1 [1633Z] | 139 nM | 86.9 nM
3 | O=c1c(OCc2cccc(F)c2)c(N2CCN(S(=O)(=O)Cc3ccccc3)CC2)cnn1-c1cc(F)cc(F)c1 [1529Z-150] | 70.1 nM | 175 nM
4 | CCCCCCCOc1c(N2CCN(S(=O)(=O)CC)CC2)cnn(-c2ccccc2)c1=O [244Z] | 201 nM | 886 nM
5 | N[C@@H](Cc1ccc(Cl)cc1)C(=O)N1CCN(c2cnn(-c3ccccc3)c(=O)c2Sc2ccc(F)cc2)CC1 [1Z] |  | 17700 nM
6 | O=c1c(OCC2CC2)c(N2CCN(S(=O)(=O)Cc3ccccc3)CC2)cnn1-c1cccc(Cl)c1 [1529Z-185] | 11.6 nM | 38.8 nM
7 | CC1(COc2c(N3CCN(S(=O)(=O)Cc4ccc5ocnc5c4)CC3)cnn(-c3cc(F)cc(F)c3)c2=O)CC1 [270*] | 52.5 nM | 35 nM
8 | O=c1c(OCC2CC2(F)F)c(N2CCN(S(=O)(=O)Cc3ccccc3)CC2)cnn1-c1cc(F)cc(F)c1 (stereo not shown) [1529Z-180] | 1.81 nM | 5.43 nM
9 | CCCCCCCCCC(=O)N1CCN(c2cnn(-c3ccccc3)c(=O)c2OCCCCCCC)CC1 [232Z] | 3810 nM | 15600 nM
10 | CC1(COc2c(N3CCN(S(=O)(=O)Cc4ccc(N)cc4)CC3)cnn(-c3cc(F)cc(F)c3)c2=O)CC1 [767Z] | 91.6 nM | 238 nM
11 | CC1(COc2c(N3CCN(S(=O)(=O)Cc4cc(N)ccc4F)CC3)cnn(-c3cccc(Cl)c3)c2=O)CC1 [1904Z] | 107 nM | 142 nM
12 | CC1CCC(Oc2c(N3CCN(S(=O)(=O)Cc4cccc(N)c4)CC3)cnn(-c3ccccc3)c2=O)C1 (stereo not shown) [1529Z-70] | 134 nM | 153 nM
13 | CC1(COc2c(N3CCN(S(=O)(=O)NCc4ccc(N)c(F)c4)CC3)cnn(-c3cccc(Cl)c3)c2=O)CC1 [1712Z] | 139 nM | 104 nM
14 | CCC1(COc2c(N3CCN(S(=O)(=O)Cc4ccc(N)cc4)CC3)cnn(-c3cc(F)cc(F)c3)c2=O)CC1 [186*] | 89.3 nM | 214 nM
15 | Cc1cc(CS(=O)(=O)N2CCN(c3cnn(-c4cc(F)cc(F)c4)c(=O)c3OCC3(C)CC3)CC2)ccc1N [1870Z] | 53.6 nM | 125 nM
16 | O=c1c(OC2CCCC2)c(N2CCN(S(=O)(=O)NCc3ccccc3)CC2)cnn1-c1cc(F)cc(F)c1 [1629Z] | 36.7 nM | 91.6 nM
17 | CC1(COc2c(N3CCN(S(=O)(=O)Cc4cccc(N)c4)CC3)cnn(-c3cccc(Cl)c3)c2=O)CC1 [755Z] | 91.9 nM | 73.5 nM
18 | O=c1c(OCC2(CF)CC2)c(N2CCN(S(=O)(=O)NCc3ccc4ncoc4c3)CC2)cnn1-c1cccc(Cl)c1 [1743Z] | 116 nM | 99.5 nM
19 | CCOCCOc1c(N2CCN(Cc3c(Cl)cccc3Cl)CC2)cnn(-c2cc(Cl)cc(Cl)c2)c1=O [214Z] | 1310 nM | 489 nM
20 | O=c1c(OCC2(CF)CC2)c(N2CCN(S(=O)(=O)Cc3ccccc3)CC2)cnn1-c1cccc(Cl)c1 [1122Z] | 54.8 nM | 54.8 nM
21 | CC1(COc2c(N3CCN(S(=O)(=O)Cc4ccccc4)CC3)cnn(-c3cccc(Cl)c3)c2=O)CC1 [1035Z] | 75.6 nM | 56.7 nM
22 | O=c1c2c(cnn1-c1cc(F)cc(F)c1)N1CCN(CC1)S(=O)(=O)/C=C/CCCCCCCCO2 [2022Z] | 78.6 nM | 157 nM
23 | O=c1c(Nc2ccc(F)cc2)c(N2CCN(S(=O)(=O)Cc3ccccc3)CC2)cnn1-c1cccc(Cl)c1 [47Z] | 45.1 nM | 415 nM
24 | CS(=O)(=O)N1CCN(c2cnn(-c3cccc(Cl)c3)c(=O)c2OC2CCc3ccccc3C2)CC1 (stereo not shown) [974Z] | 252 nM | 641 nM
25 | CC(C)S(=O)(=O)N1CCN(c2cnn(-c3cc(F)cc(F)c3)c(=O)c2Sc2ccccc2)CC1 [19Z] | 160 nM | 3360 nM
